Assays:
bacteria = assay: Bacteria population growth and activity from intensity of a diffraction maximum, treatment with antibiotic; format: cell-based
From the text: In FIG. 16, it can be seen that the intensity of the diffraction maximum decreases with time for the bacteria sample. This decrease is due to an increasing division of the bacteria, i.e. a continuous increase in the bacteria population or, in other words, an increase in the number of phase objects which increasingly disturb the constructive interference in the diffraction maximum and thereby lead to a decrease in the intensity. In FIG. 16, it can be further observed that with increasing time, the intensity increasingly fluctuates, which can be attributed to the activity of the cells.
Further shown in FIG. 17 is an exemplary enlarged section of the course of the measurement signals, in which the fluctuations of the signal can be clearly seen. By fitting a growth curve, which includes the division rate as a parameter, the division rate of the bacteria can be discerned from the signal.
It can be seen from FIG. 18 that the standard deviation increases with time. This standard deviation represents fluctuations of the signals on a short time scale which in turn are a measure for the activity of the bacteria, which will be explained in more detail with reference to FIG. 19 below.

[1] = system: Dictyostelium discoideum cell; assay: Cell motility by Fourier analysis of the temporal diffraction signal when an active substance is added; format: cell-based; conditions: active substance added to the medium in the sample chamber at time t=0; FIG. 14
From the text: In FIG. 11b, a three-dimensional view is shown top left, a plan view is shown top right, and a cross section of the sample holder G is shown at the bottom. […] A surrounding medium or an active substance can be introduced into the receptacle, which is formed by the sample chamber. A sensor with a grid, which is arranged on a substrate, is located within the sample chamber. […] Furthermore, biological cells are located on the grid, where the reaction of the cells to the active substances is to be investigated. In particular, in the illustrated case is to be investigated how the motility of the cells changes due to the addition of the active substance.
In this case, the time axis runs from top to bottom and the frequency axis runs from left to right. At time t=0, the active substance, Latruncalin A, is added to the medium located in the sample chamber.

CC1(C)S[C@@H]2[C@H](NC(=O)[C@H](N)c3ccccc3)C(=O)N2[C@H]1C(=O)O [AMP]
normalized intensity of the diffraction maximum as a function of time (bacteria; 4 mg/l applied at 60 min., FIG. 19 row 3 column c): the intensity starts increasing again after 90 min.
mean value of the standard deviation of the intensity as a function of time (bacteria; 4 mg/l applied at 60 min., FIG. 19 row 3 column d): a rapid decrease in the standard deviation, which is even more pronounced than in the second row
normalized intensity of the diffraction maximum as a function of time (bacteria; double dose of 2 mg/1, FIG. 19 row 2 column c): the decrease in the normalized intensity flattens at 120 min.
mean value of the standard deviation of the intensity as a function of time (bacteria; double dose of 2 mg/1, FIG. 19 row 2 column d): at 120 min. the standard deviation decreases significantly, which is again indicative of cell death
normalized intensity of the diffraction maximum as a function of time (bacteria; treated after 60 min. of growth, concentration 1 mg/l, FIG. 19 row 1 column c): the normalized intensity decreases, which indicates a further growth of the bacteria population
mean value of the standard deviation of the intensity as a function of time (bacteria; treated after 60 min. of growth, concentration 1 mg/l, FIG. 19 row 1 column d): the standard deviation reaches a plateau at 120 min. and decreases thereafter, which suggests that the bacteria cells die

C/C1=C/C(=O)O[C@@H]2C[C@@H](CC[C@H](C)/C=C\C=C\CC1)O[C@@](O)([C@@H]1CSC(=O)N1)C2 [Latruncalin A, Latrunculin A]
temporal course of the Fourier coefficients [1]: a rise in the Fourier coefficients, which subside again with increasing exposure time
